Assay results as given in PMC11477877, “Carbohydrate-Binding Mechanism of the Coagulant Lectin from Moringa oleifera Seeds (cMoL) Is Related to the Dimeric Protein Structure” (Molecules, 2024).

Target: T1, cMoL (coagulant lectin from Moringa oleifera seeds) (Moringa oleifera, UniProt Z9EIH6G9R5)
T1 construct: native, purified from seeds (ammonium sulfate, guar gel column); 101 residues; homodimer
T1 sequence (Z9EIH6G9R5 1-101): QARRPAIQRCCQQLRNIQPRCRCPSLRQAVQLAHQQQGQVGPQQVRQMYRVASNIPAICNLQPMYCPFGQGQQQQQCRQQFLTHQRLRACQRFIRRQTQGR
Assay: intrinsic fluorescence quenching, modified Stern-Volmer
Type: binding
Details: 298 K; water; excitation 280 nm; Hill h ~2 (dimer)
Source text: intrinsic fluorescence quenching, modified Stern-Volmer on cMoL (coagulant lectin from Moringa oleifera seeds)

With OC[C@H]1OC(O)[C@H](O)[C@@H](O)[C@H]1O (some centres unmarked) [galactose] the “Ka (10^2 M^-1)” value was 0.1239 ± 0.00004 10^2 M^-1.

For OC[C@H]1OC(O)[C@H](O)[C@@H](O)[C@@H]1O (some centres unmarked) [glucose], the “Ka (10^2 M^-1)” value was 0.2979 ± 0.00007 10^2 M^-1.
